System: E-selectin-IgG chimera
Conditions: 5 mM EDTA; shear stress 1 dyn/cm^2
Description: Cells (10^6/ml) were perfused at room temperature through the chamber at a shear stress of 1 dyn/cm^2 in binding medium alone or in the presence of 5 mM EDTA (Erg+EDTA). The number of cells which accumulated and maintained rolling at the end of 1 min of perfusion in two microscopic fields was determined as described in materials and methods. […] After 1 min perfusion, adherent cells were subjected to an abrupt 5-fold increase of shear stress and the number of cells that remained bound for at least 5 sec after the increase of shear was determined. The mean number +/− range of cells accumulated at 1 dyn/cm^2 and of accumulated cells remaining stably bound at 5 dyn/cm^2 on two fields of view are shown for the E48^lo and E48^hi cells. […] Data are representative of four independent experiments.
Cultured IUC cells grown as monolayers were harvested by a 10 min incubation with H/H medium (Hanks Balanced Salt Solution, HBSS (Sigma Israel Chemicals Ltd., Rehovot, Israel), containing BSA (2 mg/ml, fraction V, Sigma) and 10 mM HEPES, pH 7.4), supplemented with 5 mM EDTA at 37 Washed cells were resuspended in the same medium at a concentration of 1×10^7 cells/ml and kept at room temperature until use. Cells were diluted 20 fold into binding medium (H/H supplemented with 2 mM Ca^2+) and immediately perfused through the flow chamber. […]

Compound: O=C(O)CN(CCN(CC(=O)O)CC(=O)O)CC(=O)O [EDTA]
- adhesive interactions of E48^hi cells with E-selectin coated substrate: eliminated
